Reference: article PMC9845330 (Communications Biology, 2023)
Non-standard residues stand in square brackets, D forms with d. Residues, ends and D or L forms follow the SMILES beside them. *: point of attachment. X1 = O=C(CCCC[C@@H]1SC[C@@H]2NC(=O)N[C@@H]21)NCCCOCCOCCOCCCN*; PEG12 = NCCOCCOCCOCCOCCOCCOCCOCCOCCOCCOCCOCCOCCC(=O)O

Tests used:
Stability in human serum = assay type: in vitro ADME; conditions: 100% human serum, 48 h, 37 °C, serum proteins precipitated, analytical HPLC, MALDI TOF/TOF MS
Experimental: To address if acetylation is effective in reducing serum degradation of MGS4, acetylated (MGS4_V8) and non-acetylated (MGS4_V4) peptides were dissolved in human serum and incubated for 48 h at 37 °C. The peptides were monitored by analytical HPLC, and products were verified via MALDI TOF/TOF™ MS. […] Instead, a mixture of peptide fragments is detected, none of which correspond to the mass of the starting peptide (Supplemental Table 1 and Supplemental Fig. 2). The major products are shorter fragments corresponding to the loss of the five N-terminal amino acids. Fragments related to QSFYT-PEG11, SFYT-PEG11 and FYT-PEG11 are observed.
Supplemental Figure 1. […]
M GS4_V4 (non-acetylated, panel a) and M GS4_V8 (acetylated, panel b ) were incubated in 100% human serum for 0 and 48-hours. Serum proteins were precipitated, and the peptide was analyzed by analytical
HPLC. The mass of the peptide and degradation products were determined by MALDI MS and are […]
MGS4_V8, MGS4_V9, or MGS4_V10 were conjugated with streptavidin-Alexa Fluor 650 and were incubated with the indicated cell line for 1 hour. Non-internalized peptide was rem ov ed, and the mean number of peptides internalized per cell was determined to calculate the EC50. […]
Supplemental Figure 4 : Peptide-Streptavidin conjugates are nontoxic to cells. a. […] After 72 hours, viability was measured. […]

H358 cells = test: Cell internalization by flow cytometry, absolute uptake (molecules per cell); assay type: cell-based, human; conditions: for Molecules Internalized Per Cell: Average
From the text: Optimizing MGS4 as a monomer is efficient but the optimal valency of the truncated peptide may be different than that of the full-length peptide. The peptide was synthesized as a monomer (MGS4_V8), dimer (MGS4_V9), and tetramer (MGS4_V10). To obtain quantitative data, we moved from measuring the relative fluorescence of dye-labeled peptide to the determination of the average number of dye molecules internalized per cell. […] The dimer MGS4_V9 has an EC50 7-fold lower indicating there is a synergistic effect in going from a monomer to a dimer (Fig. 2a and Table 2). However, there is only a 2-fold decrease in going from a dimer to a tetrameric peptide (MGS4_V10). We also calculated the EC50 on three other NSCLC cell lines (Table 2 and Supplementary Figure 3). […] The average number of peptides internalized per cell at saturating conditions varies, with H1993 cells internalizing the highest number of peptides at all three valencies (Table 2). This is likely due to differing levels of receptor expression on the cell type. The average molecules internalized at 50 nM in one hour follows the same trend (Fig. 2b).
Biotinylated peptide was conjugated to streptavidin-R-phycoerythrin or streptavidin-Alexa Fluor 647 (1:1 molar ratio) for 30 min. The open binding sites on streptavidin were quenched with RPMI 1640 and diluted to the indicated concentration. Tumor cells were grown to 90% confluency in a 12 well plate, then incubated with 500 µl peptide-dye conjugate at 37 °C. After 1 h, peptide was removed, and the cells were washed 3x with PBS (137 mM NaCl, 2.7 mM KCl, 10 mM Na2HPO4, 1.8 mM KH2PO4, pH 7.4), 2x with 0.1 M HCl-glycine pH2.2 in 0.9% NaCl, and 1x PBS rinse. Cells were removed by trypsinization. Flow cytometry was performed on a BD FACSCelesta, and data were analyzed on Flowing software. Cells were gated based on the forward and side scatter to include only viable cells and a minimum of 10,000 events were counted. A region containing <5% of the cells in the negative control was established, and relative peptide uptake by the mean fluorescence intensity of that population. For absolute peptide uptake per cell, a standard curve was generated using Quantum™ Alexa Fluor 647 microspheres (Bangs Laboratory, Fishers, IN). A representative linear regression showing the correlation of molecule equivalents soluble fluorophores (MESF) vs the mean fluorescence intensity (MFI) is shown in Supplemental Figure 6. Cells were gated based on the forward and side scatter to include only viable cells and a minimum of 10,000 events were counted. MFI was determined at 50% at peak height. Molecules internalized per cell were determined by the standard curve relating MESF to MFI and divided by the number dye molecules/MGS conjugate. An example is shown in supplemental Figure 7. GraphPad Prism® was used for non-linear regression curve fitting to calculate an EC50. Parameters and statistical analysis are provided (Supplementary Tables 2–6). Experiments were repeated a minimum of three times.
For all EC50 determinations, each peptide variant was tested on the indicated cell line with a minimum of 3 biological replicates and analyzed individually by flow cytometry. The standard error measurement for each concentration is indicated by error bars in the figures. For experiments in which absolute number of molecules internalized was measured at different concentrations, EC50 were determined by GraphPad Prism® using nonlinear regression curve fitting for log(agonist) vs. response–Variable slope (four parameters). For the truncation experiments, EC50 were determined using one-site-specific binding. Similarly, IC50s were calculated using GraphPad Prism® using log(agonist) vs. response–Variable slope (four parameters). A minimum of four biological replicates were performed for each variant and cell line. Data for individual experiments are included in supplementary files. Parameters and statistical analysis are provided in Supplementary Tables 2–7. […]

CC(=O)N[C@@H](Cc1ccccc1)C(=O)N[C@@H](Cc1c[nH]cn1)C(=O)N[C@@H](C)C(=O)N[C@H](C(=O)N1CCC[C@H]1C(=O)N[C@@H](CCC(N)=O)C(=O)N[C@@H](CO)C(=O)N[C@@H](Cc1ccccc1)C(=O)N[C@@H](Cc1ccc(O)cc1)C(=O)N[C@H](C(=O)NCCOCCOCCOCCOCCOCCOCCOCCOCCOCCOCCOCCOCCC(=O)N[C@@H](CCC(=O)NCCCOCCOCCOCCCNC(=O)CCCC[C@@H]1SC[C@@H]2NC(=O)N[C@@H]21)C(N)=O)[C@@H](C)O)C(C)C [MGS4_V8] (Ac-FHAVPQSFYT[PEG12]E(X1)-NH2)
peptide after incubation in human serum (Stability in human serum): only full-length peptide observed | Molecules Internalized Per Cell (H358 cells; 0.01 nM): 0 | Molecules Internalized Per Cell (H358 cells; 0.1 nM): 11 | Molecules Internalized Per Cell (H358 cells; 1 nM): 140 | Molecules Internalized Per Cell (H358 cells; 5 nM): 2481 | Molecules Internalized Per Cell (H358 cells; 10 nM): 4840 | Molecules Internalized Per Cell (H358 cells; 20 nM): 25103 | Molecules Internalized Per Cell (H358 cells; 30 nM): 36064 | Molecules Internalized Per Cell (H358 cells; 40 nM): 47392 | Molecules Internalized Per Cell (H358 cells; 50 nM): 58761 | Molecules Internalized Per Cell (H358 cells; 60 nM): 66918 | Molecules Internalized Per Cell (H358 cells; 80 nM): 68326 | Saturation (molecules) (H358 cells; H358 Cells): 85,500 ± 39600 molecules | HillSlope (H358 cells; Supplementary Table 5): 1.829 | LogIC50 (H358 cells; Supplementary Table 5): -7.470 | Top (H358 cells; Supplementary Table 5): 85477
